Measured values: patent US5681817A, “Treatment of ovarian estrogen dependent conditions” (The Medical College of Hampton Roads, priority 1994, dated 1997)
Entries after “also recorded” stand apart in the source; their conditions may differ.

How the values were obtained:
[1] = tested on: female cynomolgus monkeys; test: Ovulation and serum estradiol/progesterone by RIA in monkeys with induced endometriosis; assay type: in vivo, cynomolgus monkeys (Macaca facularis); details: for mean tonic serum estradiol level: RIA, FIG. 1, control 40.6±43; for suppression of ovulation: treatment alone
Experimental: For the purposes of this study, the gonadotropin releasing hormone agonist selected was leuprolide acetate, the anti-progestin selected was RU 486 and these were administered to female cynomolgus monkeys, which are recognized to be a highly desirable model for human research.
Thirty-six adult female cynomolgus monkeys (Macaca facularis) having regular menstrual cycles were housed in individual cages which had food and water available ad librium.
(§1) Using anesthesia (ketamine 20 mg/kg im, xylazine, 1 mg/kg) on day 3 of the menstrual cycle, a diagnostic laparoscopy was performed to rule out pelvic adhesive disease or extant endometriosis. Monkeys with observable pelvic adhesions were excluded. Blood was collected on menstrual days 8-14 via venipuncture (ketamine 10 mg/kg im), and serum assayed for estradiol-17β by RIA. Laparotomy (ketamine 20 mg/kg, xylazine 1 mg/kg) was performed 3-5 days after a clearly defined pre-ovulatory estradiol peak. A 2 cm fundal hysterotomy was performed and approximately 100 mg of endometrium removed by curettage and minced in sterile 0.9% saline. The uterine incision was closed with 4-0 vicryl suture. The minced endometrial tissue was injected sub-peritoneally into five sites, namely, the left and right vesicouterine fold, right and left broad ligaments, and the cul-de-sac.
(§2) Primates were divided equally into four treatment groups (N=8). Group 1 was given monthly injections of the gonadotropin releasing hormone agonist, in an amount of 80 μg/kg im on menstrual day 21 of the second laparotomy cycle. This was continued at 28 day intervals for a total of 3 injections, at which time weekly injections of the antiprogestin RU 486 began, (5 mg/kg im, in oil, initially, then 2 mg/kg/week). RU 486 was continued for a period of 24 weeks.
(§3) Group 2 was given weekly im injections of RU 486 alone (5 mg/kg initially, then 2 mg/kg/week) beginning on menstrual day 1 of the cycle after the endometriosis was confirmed. This was continued for a treatment period of 36 weeks. Group 3 was given doses of the GnRH analog alone for 36 weeks. Group 4 was a control and received vehicle, 0.5 ml of normal saline im, weekly for 36 weeks.
Using ketamine anesthesia, blood was collected on alternate days in all groups for 28 days after the initial treatments following confirmation of active endometriosis. The serum was frozen for later analysis. Thereafter, blood was collected weekly. Blood draws continued until spontaneous menses resumed, or two months after the conclusion of injections, whichever came first. Serum was frozen, labelled, and stored for subsequent radioimmunoassay. Estradiol and progesterone were assayed using RIA (ICN Biomedical, Los Angeles, Calif.).

[2] = tested on: peritoneal endometriosis (ectopic endometrial implants); test: Area of ectopic endometrium on peritoneal surfaces at staging laparotomy; assay type: in vivo, cynomolgus monkeys (Macaca facularis); details: for area of ectopic endometrium on peritoneal surfaces / size of endometrial implants: post-treatment vs pre-treatment and vs control, FIG. 2, Wilcoxon p<0.05; for mean area of peritoneal disease after switch from GnRH analog to RU 486: Group 1, RU 486 for three months after the course of GnRH analog
Experimental: as §1
During the subsequent menstrual cycle, laparotomy was performed 3 to 5 days after the mid-cycle estradiol surge. The presence of ectopic endometrial tissue and the extent of adhesions were noted, with peritoneal implants carefully measured. Photographs of all lesions were taken and assigned a random number for later histological staging of the endometriosis by an independent observer. Biopsies were taken from representative lesions, and the tissue fixed in 10% formalin for histologic examination after hematoxylin and eosin staining.
as §2, §3
After daily injections began, a staging laparotomy was performed every 12 weeks until the end of therapy to assess the progression or regression of the disease.

[3] = tested on: bone mineral density of the lumbar spine; test: Dual X-ray absorptiometry bone mineral density of the lumbar spine; assay type: in vivo, cynomolgus monkeys (Macaca facularis); details: for change in bone density: after three months of treatment, group level; for bone density in fast bone losers: group 1 animals losing bone on GnRH analog (e.g. monkey 2190, FIG. 3), three months GnRH analog, then three months antiprogestin
Experimental: as §2, §3
Urine was collected at the time of blood sampling. The first sample was taken at the time of the first laparotomy and the second sample was taken at the time of the first injection with subsequent samples drawn every four weeks from the time of the second urine sample. Dual X-ray absorptiometry (DXA, Norland) was used to measure the bone mineral density of the lumbar spine. Primates were anesthetized with ketamine and restrained to minimize motion artifact. DXA was performed before injections began and at three month intervals until completion of the study.

[4] = tested on: endometrial and vaginal epithelium; test: Histological assessment of endometrium and vaginal epithelium (hematoxylin and eosin); assay type: in vivo, cynomolgus monkeys (Macaca facularis); details: for ENDOMETRIUM MENTRUAL PHASE / ENDOMETRIUM THICKNESS / VAGINAL EPITHELIUM AND KERATIN: histology; for ENDOMETRIUM MENTRUAL PHASE / ENDOMETRIUM THICKNESS: hematoxylin and eosin; for VAGINAL EPITHELIUM AND KERATIN: thickness
Experimental: Primates were divided equally into four treatment groups (N=8). Group 1 was given monthly injections of the gonadotropin releasing hormone agonist, in an amount of 80 μg/kg im on menstrual day 21 of the second laparotomy cycle. This was continued at 28 day intervals for a total of 3 injections, at which time weekly injections of the antiprogestin RU 486 began, (5 mg/kg im, in oil, initially, then 2 mg/kg/week). RU 486 was continued for a period of 24 weeks. Group 2 was given weekly im injections of RU 486 alone (5 mg/kg initially, then 2 mg/kg/week) beginning on menstrual day 1 of the cycle after the endometriosis was confirmed. This was continued for a treatment period of 36 weeks. Group 3 was given doses of the GnRH analog alone for 36 weeks. Group 4 was a control and received vehicle, 0.5 ml of normal saline im, weekly for 36 weeks. Vaginal epithelium was obtained at the time of each surgery using Kevorkian biopsy forceps taken from the lateral vaginal side of the upper two-thirds of the vagina. At the time of each laparotomy, a small repeat hysterotomy was performed for the purpose of endometrial sampling for histologic examination.

endometriosis = details: cited from earlier work
uterine leiomyomata = details: cited from earlier work

CCNC(=O)[C@@H]1CCCN1C(=O)[C@H](CCCNC(=N)N)NC(=O)[C@H](CC(C)C)NC(=O)[C@@H](CC(C)C)NC(=O)[C@H](Cc1ccc(O)cc1)NC(=O)[C@H](CO)NC(=O)[C@H](Cc1c[nH]c2ccccc12)NC(=O)[C@H](Cc1c[nH]cn1)NC(=O)[C@@H]1CCC(=O)N1 [GnRH analog, leuprolide acetate]
mean tonic serum estradiol level [1]: 24.2 ± 17 pg/mL | suppression of ovulation [1]: suppression of ovulation | area of ectopic endometrium on peritoneal surfaces / size of endometrial implants [2]: unequivocal limiting impact | change in bone density [3]: no change | bone density in fast bone losers [3]: significant degree of bone loss | ENDOMETRIUM MENTRUAL PHASE [4]: weakly proliferative | ENDOMETRIUM THICKNESS [4]: uniformly thin | ENDOMETRIUM THICKNESS ([4]; listed as ANALOG ONLY): THIN | VAGINAL EPITHELIUM AND KERATIN [4]: THIN

CC#C[C@]1(O)CC[C@H]2[C@@H]3CCC4=CC(=O)CCC4=C3[C@@H](c3ccc(N(C)C)cc3)C[C@@]21C [RU 486, mifepristone]
mean tonic serum estradiol level [1]: 57.8 ± 34.6 pg/mL | suppression of ovulation [1]: suppression of ovulation | mean area of peritoneal disease after switch from GnRH analog to RU 486 [2]: remained the unchanged | mean area of peritoneal disease after switch from GnRH analog to RU 486 ([2]; listed as antiprogestin): able to sustain the reduced surface of peritoneal endometriosis | area of ectopic endometrium on peritoneal surfaces / size of endometrial implants [2]: unequivocal limiting impact | bone density, PRE-TREATMENT (MEAN ± SD) ([3]; DXA lumbar spine, baseline before injections): 0.501 ± 0.029 | bone density, AFTER 3 MONTHS ([3]; DXA lumbar spine, mean ± SD, in group 1 the first 3 months are GnRH analog): 0.541 ± 0.033 | change in bone density [3]: marginally significant increase in bone density | bone density in fast bone losers [3]: counteracted this loss; also recorded: returned to baseline | vaginal atrophy ([4]; cynomolgus monkey, in vivo): not noted | ENDOMETRIUM MENTRUAL PHASE [4]: interval phase | ENDOMETRIUM THICKNESS ([4]; listed as antiprogestin): thinner than in control monkeys; also recorded: remained moderately thin | VAGINAL EPITHELIUM AND KERATIN ([4]; listed as antiprogestin): greater in the antiprogestin group than in the GnRH analog groups; also recorded: thicker

C#C[C@]1(O)CC[C@H]2[C@@H]3CCC4=Cc5oncc5C[C@]4(C)[C@H]3CC[C@@]21C [danazol, 17-α-pregna-2,4-dien-20-yno[2,3-d]-isoxazol-17-ol]
side effects (endometriosis; in vivo): many androgenic side effects | efficacy in treatment of endometriosis (endometriosis; producing a hypoestrogenic milieu): effective medication for the treatment of endometriosis

CC(=O)O[C@]1(C(C)=O)CC[C@H]2[C@@H]3C[C@H](C)C4=CC(=O)CC[C@]4(C)[C@H]3CC[C@@]21C [medoxyprogesterone acetate]
hot flashes and urinary calcium loss (uterine leiomyomata; add-back regimen with leuprolide): reduced | total uterine volume (uterine leiomyomata; add-back regimen with leuprolide, not back to baseline values): modest increase | effect on agonist-induced decrease of nonmyoma volume (uterine leiomyomata; concomitant treatment with leuprolide): reverse the effectiveness
